Source: US20230270773A1, “METHODS OF TREATING CANCER WITH A STING AGONIST” (Immunesensor Therapeutics, Inc., priority 2019, published 2023)

Experiments:
[1] = Compound A levels in plasma after dosing of mice; type: in vivo, C57BL/6 mice
Experimental: The pharmacokinetic/pharmacodynamic properties of Compound A were evaluated in C57BL/6 mice following dosing by subcutaneous, intramuscular, or intravenous routes of administration. Blood was collected post-dosing for the measurement of Compound A and cytokine levels in plasma.

LL2 (lung cancer) = test: LL2 PD-L1 antibody-resistant tumor model; type: in vivo, C57BL/6 mice
Experimental: (§1) Compound A was evaluated alone and in combination with 200 µg of the PD-L1 antibody used in Example 6 in immune checkpoint blockade-resistant tumors. In these studies, mice were implanted with LL2 (lung cancer), 4T1 (breast cancer), AG104Ld (fibrosarcoma), and AG104A (fibrosarcoma) tumors. Following implantation, the animals were dosed intratumorally or subcutaneously with 0.5 mg/kg of Compound A alone or in combination with the PD-L1 antibody, as shown in the table below: […]

AG104A (fibrosarcoma) = test: AG104A PD-L1 antibody-resistant tumor model; type: in vivo, B6C3F1 mice; conditions: Compound A 0.5 mg/kg SC, days 4, 7, 10, 14, 17, 21; PD-L1 antibody 200 µg
Experimental: as §1

AG104 (fibrosarcoma) = test: AG104 syngeneic tumor model, intratumoral; type: in vivo, mouse
Experimental: Note that several of these tumors such as B16F10, 4T1, LL2 and AG104 are known to be refractory to antibodies against PD-1, PD-L1, or CTLA-4. In the B16F10 tumor model, twice weekly injection of Compound A for two weeks was efficacious in a dose-dependent manner in the range from 0.1 µg to 10 µg (0.005-0.5 mg/kg).

[2] = test system: B16 melanoma lung metastasis; test: B16 melanoma lung metastasis model; type: in vivo, mouse; conditions: intratumoral days 5, 8, 11; PD-L1 antibody 200 µg
Experimental: A B16 melanoma lung metastasis model was used to evaluate the effect of Compound A on tumor metastasis. Compound A was administered intratumorally on days 5, 8, and 11 after tumor inoculation alone or in combination with a PD-L1 antibody (200 µg of the antibody used in Example 6).

[3] = test system: IFNα, IL-6, TNFα and other cytokines; test: Plasma cytokine levels in cynomolgus monkeys; type: in vivo
Experimental: Male and female cynomolgus monkeys were assigned to groups and doses of Compound A were administered. Animals were dosed via subcutaneous injection at a volume of 2 mL/kg. The vehicle control article/diluent was phosphate-buffered saline (PBS).
Escalation of Compound A dose levels was tolerated up to 3.0 mg/kg/dose, with findings limited to increased body temperature and elevated IFNα, IL-6, and TNFα cytokine levels. IFNα, TNFα, and IL-6 levels were measured at 3, 6, and 12 hours post-dosing. Dose related but variable changes were observed. […] TNFα levels increased at 3 hours in the 1 mg/kg group. […] The cytokine responses are consistent with the predicted STING pathway activation.

syngeneic tumors = test: Combination with PD-L1 antibody in multiple syngeneic tumor models; type: in vivo, mouse; conditions: tumors otherwise refractory to immune checkpoint inhibitors
Description: Several of these studies are described in the examples below.

[4] = test system: IFNα, IL-6, TNFα and other cytokines; test: Plasma cytokine levels in cynomolgus monkeys; type: in vivo; conditions: for plasma IFNα levels: male and female
[5] = 1 mg/kg/day, 1.5, 3 and 6 hours postdose

In the case of Nc1nc2c(ncn2[C@@H]2O[C@@H]3COP(=O)(O)OC4C(O)[C@H](n5cnc6c(N)ncnc65)O[C@@H]4COP(=O)(O)OC2C3OCC(F)(F)F)c(=O)[nH]1 (some centres unmarked) [Compound A], the concentration at 15 minutes ([1]; C57BL/6, mouse, plasma, 15 minutes after injection, subcutaneous, intramuscular or intravenous, read-out: Compound A level in plasma) was 5 to 15 µM, the “Compound A in circulation” value ([1]; at 15 minutes, subcutaneous or intratumoral) was “detectable” and the “Levels of Compound A” value ([1]; by 1 hour, subcutaneous, intratumoral or intravenous) was “below the limit of quantitation (BLOQ)”. The “Compound A level in plasma” value ([1]; one hour after administration) was “below the limit of detection”, the “Cmax, comparison between administration routes” value ([1]; subcutaneous, intramuscular, intravenous) was “not significantly different between administration routes” and the “efficacy (tumor growth and survival)” value (LL2 (lung cancer); Compound A 0.5 mg/kg IT, days 5, 10, 14, 17, PD-L1 antibody 200 µg) was “suppressed tumor growth and prolonged mouth survival”. The tumor growth inhibition (LL2 (lung cancer); intratumoral) was “highly effective in inhibiting tumor growth”, the “efficacy (tumor growth and survival)” value (AG104A (fibrosarcoma)) was “suppressed tumor growth and prolonged mouth survival” and the tumor growth inhibition (AG104 (fibrosarcoma)) was “highly effective in inhibiting tumor growth”. The “number of metastases in the lung” value [2] was “dramatically reduced”, the primary tumor volume [2] was “significant reduction in tumor volume” and the IFNα levels ([3]; 1 mg/kg and 3 mg/kg groups, 3 and 6 hours post dosing) was “Moderate levels of IFNα”. For the same molecule, the TNFα levels ([3]; 1 mg/kg group, 3 hours) was “increased”, the TNFα levels ([3]; 3 mg/kg and 10 mg/kg groups) was “Lower levels of TNFα” and the IL-6 increases ([3]; 3 mg/kg and 10 mg/kg, 12 hours postdose) was “persisted at 12 hours postdose”. The “cytokine levels, time course” value ([3]; NHP, non-GLP studies of Example 2) was “increases in the first 3-6 hours with return to baseline in most cases by 6-24 hours”, the “plasma IL-6 levels” value ([3]; all groups, 3 and 6 hours post dosing) was “Increases in plasma IL-6 levels” and the “responsiveness to PD-L1 antibody” value (syngeneic tumors) was “restored responsiveness to PD-L1 antibody”. The “plasma IL-6 levels” value ([4]; 0.1 mg/kg/day, 3 and 6 hours postdose) was “Increased plasma levels of IL-6”, the IP-10 ([4]; 0.1 mg/kg/day, 3 hours post dosing) was “Slight elevation of IP-10” and the TNFα levels ([4]; 0.1 mg/kg/day, 6 hours postdose in male, 3 and 6 hours in female) was “Elevated levels of TNFα”. The TNFα levels ([4]; 0.1 mg/kg/day, 24 hours post dosing) was “returned to non-detectable level”, the IL-6 levels ([4]; 0.1 mg/kg/day, 24 hours postdose) was “returned to a non-detectable level” and the “plasma IFNα levels” value ([4]; 0.1 mg/kg/day) was “did not cause significant increase”. For the same molecule, the “plasma IL-6 levels” value ([4]; 0.6 mg/kg/day, 3 and 6 hours postdose) was “Increased plasma levels of IL-6”, the TNFα levels ([4]; 0.6 mg/kg/day, 6 hours postdose in male, 1.5, 3, 6 hours in female) was “Elevated levels of TNFα” and the “plasma IFNα levels” value ([4]; 0.6 mg/kg/day) was “did not cause significant increase”. For the same molecule, the IP-10 ([4]; 0.6 mg/kg/day, throughout the time course) was “No significant elevation of IP-10”, the IP-10 level [4, 5] was “no increased IP-10 level” and the TNFα levels [4, 5] was “Elevated TNFα levels”. For the same molecule, the IFNα levels ([4]; 1 mg/kg/day, 1.5 and 3 hours postdose) was “did not cause significant change”, the IL-6 levels ([4]; 1 mg/kg/day, 3 and 6 hours postdose) was “Marked increase in IL-6 levels” and the IFNα levels ([4]; 1 mg/kg/day, 6 hours postdose) was “elevated levels”. The IFNα levels ([4]; 3 mg/kg and 10 mg/kg, 12 hours after dosing) was “decreased 12 hours after dosing, but did not return to pre-dose levels”, the IFNα levels ([4]; 10 mg/kg group) was “Higher levels of IFNα” and the “IL-12, G-CSF, and IFNγ levels” value ([4]; Phase II) was “sporadic increases”. The “changes in MCP-1 and IP-10 levels” value ([4]; Phase II) was “suggestive of an inflammatory response with resolution by 24 hours postdose” and the “plasma IL-1ra, IL-6, and IFNα cytokine levels” value ([4]; Phase II, 3 mg/kg, 3 and 6 hours) was “dose-dependent increases”.
